Data published in patent US20150111750A1, “Substituted N-(tetrazol-5-yl)- and N-(triazol-5-yl)hetarylcarboxamide compounds and their use as herbicides” (BASF SE, priority 2012, published 2015).

Experiments:
Amaranthus retroflexus = experiment: Greenhouse post-emergence treatment of Amaranthus retroflexus; format: in vivo; settings: application rate 1000 g/ha, scale 0 (no damage) to 100 (complete destruction)
Text: (§1) The seeds of the test plants were sown separately for each species. For the post-emergence treatment, the test plants were first grown to a height of 3 to 15 cm, depending on the plant habit, and only then treated with the active ingredients which had been suspended or emulsified in water. For this purpose, the test plants were either sown directly and grown in the same containers, or they were first grown separately as seedlings and transplanted into the test containers a few days prior to treatment. Depending on the species, the plants were kept at 10-25° C. or 20-35° C. The test period extended over 2 to 4 weeks. During this time, the plants were tended, and their response to the individual treatments was evaluated. Evaluation was carried out using a scale from 0 to 100. 100 means no emergence of the plants, or complete destruction of at least the aerial moieties, and 0 means no damage, or normal course of growth. A good herbicidal activity is given at values of at least 70 and a very good herbicidal activity is given at values of at least 85. The plants used in the greenhouse experiments belonged to the following species: [table]

Echinochloa crus-galli = experiment: Greenhouse post-emergence treatment of Echinochloa crus-galli; format: in vivo; settings: application rate 1000 g/ha, scale 0 (no damage) to 100 (complete destruction)
Text: as §1

SMILES: Cn1ncnc1NC(=O)c1cnc(Cl)cc1Cl [I.5-1, 4,6-dichloro-N-(2-methyl-1,2,4-triazol-3-yl)pyridine-3-carboxamide]
- damage [%] (Amaranthus retroflexus): 65%
- damage [%] (Echinochloa crus-galli): 30%
